Legend:
Format in all cases: in vivo
[1] = test system: giant foxtail (Setaria faberii); assay: Test A pre-/postemergence plant response
Summary of the method: (§1)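 Each species was treated preemergence via directed soil spray and postemergence at the one- to two-leaf stage, with compounds formulated in a non-phytotoxic solvent plus surfactant. Visual injury relative to untreated controls was rated after about ten days on a 0–100 scale.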

[2] = test system: morningglory (Ipomoea spp.); assay: Test A pre-/postemergence plant response
Summary of the method: as §1

[3] = test system: wheat (Triticum aestivum); assay: Test A pre-/postemergence plant response
Summary of the method: as §1

[4] = test system: large crabgrass (Digitaria sanguinalis); assay: Test A pre-/postemergence plant response
Summary of the method: as §1

[5] = test system: velvetleaf (Abutilon theophrasti); assay: Test A pre-/postemergence plant response
Summary of the method: as §1

corn (Zea mays) = assay: Test A pre-/postemergence plant response
Summary of the method: as §1

[6] = test system: galium (catchweed bedstraw, Galium aparine); assay: Test B pre-/postemergence plant response; conditions: Preemergence
Summary of the method: (§2)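 Visually scored on a 0 to 100 scale after 13 to 15 days in greenhouse versus controls. Treatments were preemergence on seeded loam/sand soil and postemergence on 1- to 4-leaf plants.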

[7] = test system: sunflower (common oilseed sunflower, Helianthus annuus); assay: Test B pre-/postemergence plant response; conditions: Preemergence
Summary of the method: as §2

[8] = test system: nightshade (eastern black nightshade, Solanum ptycanthum); assay: Test B pre-/postemergence plant response; conditions: Preemergence
Summary of the method: as §2

[9] = test system: goosegrass (Eleusine indica); assay: Test B pre-/postemergence plant response; conditions: Preemergence, 62 g ai/ha; scale 0 to 100, 0 no effect, 100 complete control
[10] = test system: chickweed (Stellaria media); assay: Test B postemergence plant response; conditions: Postemergence
Summary of the method: (§3)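 Visual ratings from 0 (no effect) to 100 (complete control), made against controls 13–15 days after treatment, kept in a greenhouse. Compounds were applied postemergence to potted plants at the 1- to 4-leaf stage (2–18 cm).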

[11] = test system: winter barley (Hordeum vulgare); assay: Test B postemergence plant response; conditions: Postemergence
Summary of the method: as §3

[12] = test system: canarygrass (Phalaris minor); assay: Test B postemergence plant response; conditions: Postemergence
Summary of the method: as §3

[13] = test system: windgrass (Apera spica-venti); assay: Test B postemergence plant response; conditions: Postemergence, scale 0 (no effect) to 100 (complete control)
Summary of the method: as §3

[14] = Postemergence, 125 g ai/ha, visual injury, 0 to 100 scale (0 no effect, 100 complete control), approx. ten days
[15] = Postemergence, 500 g ai/ha, 0 to 100 scale, 0 = no effect, 100 = complete control, approx. ten days
[16] = Preemergence, 125 g ai/ha, 0 to 100 scale, 0 = no effect, 100 = complete control
[17] = Preemergence, 500 g ai/ha, visual injury, 0 to 100 scale (0 no effect, 100 complete control), approx. ten days
[18] = 31 g ai/ha, scale 0 to 100 (0 no effect, 100 complete control)
[19] = 62 g ai/ha, scale 0 to 100, 0 no effect, 100 complete control
[20] = 62 g ai/ha, scale 0 (no effect) to 100 (complete control), 13 to 15 days
[21] = 125 g ai/ha, visual rating after 13 to 15 days, scale 0 (no effect) to 100 (complete control)

Cc1cccc(-n2c(-c3cccc(Cl)c3)ncc(C(=O)C3=C(O)CCCC3=O)c2=O)c1 [Compound 45]
Foxtail, Giant plant response rating [1, 14]: 50
Plant response rating, Foxtail, Giant [1, 15]: 90
Plant response rating, Foxtail, Giant [1, 16]: 0
Plant response rating, Foxtail, Giant [1, 17]: 80
Morningglory plant response rating [2, 14]: 80
Plant response rating, Morningglory [2, 15]: 100
Plant response rating, Morningglory [2, 16]: 20
Plant response rating, Morningglory [2, 17]: 90
Wheat plant response rating [3, 14]: 0
Plant response rating, Wheat [3, 15]: 40
Plant response rating, Wheat [3, 16]: 0
Plant response rating, Wheat [3, 17]: 20
Crabgrass, Large plant response rating [4, 14]: 60
Plant response rating, Crabgrass, Large [4, 15]: 90
Plant response rating, Crabgrass, Large [4, 16]: 50
Plant response rating, Crabgrass, Large [4, 17]: 100
Velvetleaf plant response rating [5, 14]: 100
Plant response rating, Velvetleaf [5, 15]: 100
Plant response rating, Velvetleaf [5, 16]: 60
Plant response rating, Velvetleaf [5, 17]: 100
Corn plant response rating (corn (Zea mays); [14]): 0
Plant response rating, Corn (corn (Zea mays); [15]): 20
Plant response rating, Corn (corn (Zea mays); [16]): 0
Plant response rating, Corn (corn (Zea mays); [17]): 0
Plant response rating, Galium ([6]; 250 g ai/ha, 0 to 100 scale): 85
Plant response rating, Galium [6, 18]: 40
Plant response rating, Galium [6, 19]: 40
Galium plant response rating ([6]; 125 g ai/ha, 0 to 100 scale): 50
Plant response rating, Sunflower ([7]; 250 g ai/ha, 0 to 100 scale): 75
Plant response rating, Sunflower [7, 18]: 0
Sunflower plant response rating ([7]; 125 g ai/ha, 0 to 100 scale): 10
Plant response rating, Nightshade ([8]; 250 g ai/ha, 0 to 100 scale): 100
Plant response rating, Nightshade [8, 18]: 98
Plant response rating, Nightshade [8, 19]: 100
Nightshade plant response rating ([8]; 125 g ai/ha, 0 to 100 scale): 100
Plant response rating, Goosegrass [9]: 100
Plant response rating, Chickweed [10, 18]: 75
Plant response rating, Chickweed [10, 20]: 85
Plant response rating, Chickweed [10, 21]: 98
Chickweed plant response rating ([10]; 250 g ai/ha, scale 0 to 100): 100
Plant response rating, Barley [11, 18]: 5
Plant response rating, Barley [11, 20]: 5
Plant response rating, Barley [11, 21]: 5
Barley plant response rating ([11]; 250 g ai/ha, scale 0 to 100): 5
Plant response rating, Canarygrass [12, 18]: 10
Plant response rating, Canarygrass [12, 20]: 10
Plant response rating, Canarygrass [12, 21]: 30
Canarygrass plant response rating ([12]; 250 g ai/ha, scale 0 to 100): 30
Plant response rating, Windgrass ([13]; 62 g ai/ha, 13 to 15 days): 60
Plant response rating, Windgrass ([13]; 125 g ai/ha, visual rating after 13 to 15 days): 70

From patent US8952024B2, “Herbicidal pyrimidone derivatives” (E I du Pont de Nemours and Company, priority 2009, dated 2015)
